Where two headings read alike, the source gives them in different places.
How the values were obtained:
[1] = target: BTK^WT (Homo sapiens (Human), UniProt Q06187); experiment: BTK^WT binding affinity (TR-FRET, LanthaScreen)
Description: BTK^WT binding affinity of each compound tested was determined using a time-resolved fluorescence resonance energy transfer (TR-FRET) methodology. 2.5 nM Recombinant BTK^WT kinase, varying concentrations of inhibitor, 2 nM LanthaScreen™ Eu anti-His Antibody and 15 nM Kinase Tracer 236 was incubated in 1× LanthaScreen™ Kinase Buffer A for 5 h. Recombinant BTK kinase and all LanthaScreen™ components were purchased from Invitrogen. Measurements were performed in a reaction volume of 30 μL using half-area 96-well assay plates. The TR-FRET signal was read on a plate reader with an excitation wavelength of 340 nm and detection wavelengths of 615 and 665 nm. Binding affinity was determined for each compound by measuring TR-FRET signal at various concentrations of compound and plotting the relative fluorescence units against the inhibitor concentration to estimate the IC50 from log [Inhibitor] vs response using the Variable Slope model in Graphpad prism from Graphpad software (SanDiego, Calif.).

[2] = target: BTK^C481S (Homo sapiens (Human), UniProt Q06187, C481S); experiment: BTK^C481S binding affinity (TR-FRET, LanthaScreen); details: 5 h incubation
Sequence of BTK^C481S (Q06187 whole entry C481S): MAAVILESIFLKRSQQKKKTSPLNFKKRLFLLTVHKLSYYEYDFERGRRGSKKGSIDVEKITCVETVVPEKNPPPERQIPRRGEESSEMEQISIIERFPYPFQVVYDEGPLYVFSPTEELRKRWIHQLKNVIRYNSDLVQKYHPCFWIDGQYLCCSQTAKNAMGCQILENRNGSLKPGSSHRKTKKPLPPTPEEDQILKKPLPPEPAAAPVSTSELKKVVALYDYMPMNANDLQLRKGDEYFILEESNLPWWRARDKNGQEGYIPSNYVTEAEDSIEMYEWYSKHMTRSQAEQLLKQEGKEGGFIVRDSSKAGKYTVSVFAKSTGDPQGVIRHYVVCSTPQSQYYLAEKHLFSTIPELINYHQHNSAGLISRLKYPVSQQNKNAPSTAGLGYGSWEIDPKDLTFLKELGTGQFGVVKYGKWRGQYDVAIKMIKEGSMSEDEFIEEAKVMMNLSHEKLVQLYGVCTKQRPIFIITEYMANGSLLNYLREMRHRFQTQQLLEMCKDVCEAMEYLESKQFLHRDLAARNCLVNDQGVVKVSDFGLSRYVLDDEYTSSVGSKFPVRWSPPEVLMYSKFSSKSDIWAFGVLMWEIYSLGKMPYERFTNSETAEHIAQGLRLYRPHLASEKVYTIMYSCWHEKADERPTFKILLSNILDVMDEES
Description: BTK^C481S binding affinity of each compound tested was determined using a time-resolved fluorescence resonance energy transfer (TR-FRET) methodology. 5 nM Recombinant […] kinase, varying concentrations of inhibitor, 2 nM LanthaScreen™ Eu anti-His Antibody and 30 nM Kinase Tracer 236 was incubated in 1× LanthaScreen™ Kinase Buffer A for 5 h. Recombinant BTK^C481S kinase was purchased from SignalChem and all LanthaScreen™ components were purchased from Invitrogen. Measurements were performed in a reaction volume of 30 μL using half-area 96-well assay plates. The TR-FRET signal was read on a plate reader with an excitation wavelength of 340 nm and detection wavelengths of 615 and 665 nm. Binding affinity was determined for each compound by measuring TR-FRET signal at various concentrations of compound and plotting the relative fluorescence units against the inhibitor concentration to estimate the IC50 from log [Inhibitor] vs response using the Variable Slope model in Graphpad prism from Graphpad software (SanDiego, Calif.).

[3] = target: EGFR (Homo sapiens (Human), UniProt P00533); experiment: EGFR binding affinity (TR-FRET, LanthaScreen); details: 5 h incubation
Sequence of EGFR (P00533 25-1210): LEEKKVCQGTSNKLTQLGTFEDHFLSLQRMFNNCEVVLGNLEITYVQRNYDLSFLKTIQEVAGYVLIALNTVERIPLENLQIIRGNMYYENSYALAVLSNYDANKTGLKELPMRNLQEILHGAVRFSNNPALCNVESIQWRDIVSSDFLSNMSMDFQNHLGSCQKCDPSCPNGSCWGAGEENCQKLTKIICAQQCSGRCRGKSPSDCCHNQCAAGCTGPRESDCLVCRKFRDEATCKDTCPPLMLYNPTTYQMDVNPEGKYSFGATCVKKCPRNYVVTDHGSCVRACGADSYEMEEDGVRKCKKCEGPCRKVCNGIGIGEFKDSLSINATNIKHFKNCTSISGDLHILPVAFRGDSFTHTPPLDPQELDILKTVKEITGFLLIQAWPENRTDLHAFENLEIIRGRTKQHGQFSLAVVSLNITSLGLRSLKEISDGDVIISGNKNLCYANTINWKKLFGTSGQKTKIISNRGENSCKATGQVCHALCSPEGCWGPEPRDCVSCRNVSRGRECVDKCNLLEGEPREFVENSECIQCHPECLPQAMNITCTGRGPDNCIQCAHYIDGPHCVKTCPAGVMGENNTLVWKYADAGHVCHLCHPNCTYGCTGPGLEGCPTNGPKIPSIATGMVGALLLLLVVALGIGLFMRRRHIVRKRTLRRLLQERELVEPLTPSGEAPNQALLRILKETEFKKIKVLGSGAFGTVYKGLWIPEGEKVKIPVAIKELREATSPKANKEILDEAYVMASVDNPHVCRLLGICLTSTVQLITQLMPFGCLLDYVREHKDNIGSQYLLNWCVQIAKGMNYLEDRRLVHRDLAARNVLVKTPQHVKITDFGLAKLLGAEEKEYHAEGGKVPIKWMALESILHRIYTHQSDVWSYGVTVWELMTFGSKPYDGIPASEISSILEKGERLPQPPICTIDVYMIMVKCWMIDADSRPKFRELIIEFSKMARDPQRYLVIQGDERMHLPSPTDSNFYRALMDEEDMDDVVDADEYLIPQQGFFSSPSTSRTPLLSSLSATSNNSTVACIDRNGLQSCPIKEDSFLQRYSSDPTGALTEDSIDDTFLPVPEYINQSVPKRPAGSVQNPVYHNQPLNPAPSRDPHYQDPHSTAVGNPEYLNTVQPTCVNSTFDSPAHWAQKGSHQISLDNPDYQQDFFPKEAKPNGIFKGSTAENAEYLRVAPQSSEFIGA
Description: EGFR binding affinity was determined using a time-resolved fluorescence resonance energy transfer (TR-FRET) methodology. 2.5 nM Recombinant EGFR, varying concentrations of inhibitor, 2 nM LanthaScreen™ Eu anti-GST Antibody and 3 nM Kinase Tracer 199 was incubated in 1× LanthaScreen™ Kinase Buffer A for 5 h. Recombinant EGFR and all LanthaScreen™ components were purchased from Invitrogen. Measurements were performed in a reaction volume of 30 μL using half-area 96-well assay plates. The TR-FRET signal was read on a plate reader with an excitation wavelength of 340 nm and detection wavelengths of 615 and 665 nm. Binding affinity was determined for each compound by measuring TR-FRET signal at various concentrations of compound and plotting the relative fluorescence units against the inhibitor concentration to estimate the IC50 from log [Inhibitor] vs response using the Variable Slope model in Graphpad prism from Graphpad software (SanDiego, Calif.).

[4] = test system: OCI-Ly10 human DLBCL cells; experiment: OCI-Ly10 anti-proliferative activity (Resazurin, 72 h); type: cell-based; details: Homo sapiens, OCI-Ly10, 72 h, read-out: Proliferation OCI-Ly10-IC50
Description: Compounds were assayed for effects on the growth of OCI-Ly10 human DLBCL cells that are dependent on NFκB signalling. OCI-Ly10 cells were grown in suspension in T225 flasks, centrifuged and re-suspended in 2.5% FBS containing media. Cells were then plated at 7.5×10^3 cells per well in 96-well plates in varying concentrations of compound and incubated for 72 h at 37° C. An additional plate of cells to be used as the Day 0 read was seeded without compound addition, Resazurin was added to each well, incubated for 5 h and the fluorescence measured at 590 nm. After 72 h of compound treatment, Resazurin was added to each well of the compound treated plates, incubated for 5 h and the fluorescence measured at 590 nm. The IC50 was then calculated by subtracting the average Day 0 value from each well value from the treated plates, each treatment was then calculated as a percentage of the DMSO control and the percentages plotted against the inhibitor concentration to estimate the IC50 from log [Inhibitor] vs response using the Variable Slope model in Graphpad prism from Graphpad software (SanDiego, Calif.).

[5] = TR-FRET binding, 5 h incubation, read-out: BTK^WT IC50
[6] = Table 6, numeric values, read-out: BTK Binding IC50

Sequence of BTK^WT (Q06187 whole entry): as the sequence (Q06187 whole entry C481S) above, with S481C counted along it

| SMILES | IC50 [1, 5] [nM] | IC50 [2] [nM] | IC50 [3] [nM] | IC50 [4] [nM] | IC50 [1, 6] [nM] |
| --- | --- | --- | --- | --- | --- |
| COc1ccccc1C(=O)NCc1ccc(-c2nn(C3CCC(C(=O)O)CC3)c3ncnc(N)c23)cc1 (centres unmarked) [Example 30, 4-[4-amino-3-[4-[[(2-methoxybenzoyl)amino]methyl]phenyl]pyrazolo[3,4-d]pyrimidin-1-yl]cyclohexanecarboxylic acid] | ≤ 10 | ≤ 10 | 100 to 1000 | – | 1.4 |
| Nc1ncnc2c1c(-c1ccc(CNC(=O)c3ccccc3F)cc1)nn2C1CCCC1 [Example 2, N-[[4-(4-amino-1-cyclopentyl-pyrazolo[3,4-d]pyrimidin-3-yl)phenyl]methyl]-2-fluoro-benzamide] | – | – | 10 to 100 | 1000 to 10000 | – |
| COc1cc(Cl)ccc1C(=O)NCc1ccc(-c2nn(C3CCCC3)c3ncnc(N)c23)cc1 [Example 9, N-[[4-(4-amino-1-cyclopentyl-pyrazolo[3,4-d]pyrimidin-3-yl)phenyl]methyl]-4-chloro-2-methoxy-benzamide] | – | – | > 10000 | 100 to 1000 | – |
| COc1cc(C)ccc1C(=O)NCc1ccc(-c2nn(C3CCCC3)c3ncnc(N)c23)cc1 [Example 10, N-[[4-(4-amino-1-cyclopentyl-pyrazolo[3,4-d]pyrimidin-3-yl)phenyl]methyl]-2-methoxy-4-methyl-benzamide] | – | – | > 10000 | 100 to 1000 | – |
| COc1c(F)cccc1C(=O)NCc1ccc(-c2nn(C3CCCC3)c3ncnc(N)c23)cc1 [Example 14, N-[[4-(4-amino-1-cyclopentyl-pyrazolo[3,4-d]pyrimidin-3-yl)phenyl]methyl]-3-fluoro-2-methoxy-benzamide] | – | – | 1000 to 10000 | 100 to 1000 | – |
| COc1ncccc1C(=O)NCc1ccc(-c2nn(C3CCCC3)c3ncnc(N)c23)cc1 [Example 18, N-[[4-(4-amino-1-cyclopentyl-pyrazolo[3,4-d]pyrimidin-3-yl)phenyl]methyl]-2-methoxy-pyridine-3-carboxamide] | 10 to 100 | 10 to 100 | – | 100 to 1000 | – |
| COc1ccccc1C(=O)NCc1ccc(-c2nn(C3CCCC3)c3ncnc(N)c23)cc1 [Example 1, N-[[4-(4-amino-1-cyclopentyl-pyrazolo[3,4-d]pyrimidin-3-yl)phenyl]methyl]-2-methoxy-benzamide] | ≤ 10 | ≤ 10 | – | 10 to 100 | – |
| COc1ccc(C(F)(F)F)cc1C(=O)NCc1ccc(-c2nn(C3CCCC3)c3ncnc(N)c23)cc1 [Example 13, N-[[4-(4-amino-1-cyclopentyl-pyrazolo[3,4-d]pyrimidin-3-yl)phenyl]methyl]-2-methoxy-5-(trifluoromethyl)benzamide] | 100 to 1000 | – | > 10000 | 100 to 1000 | – |
| COc1cc(F)ccc1C(=O)NCc1ccc(-c2nn(C3CCCC3)c3ncnc(N)c23)cc1 [Example 15, N-[[4-(4-amino-1-cyclopentyl-pyrazolo[3,4-d]pyrimidin-3-yl)phenyl]methyl]-4-fluoro-2-methoxy-benzamide] | – | – | 1000 to 10000 | 10 to 100 | – |
| COc1cccc(F)c1C(=O)NCc1ccc(-c2nn(C3CCCC3)c3ncnc(N)c23)cc1 [Example 16, N-[[4-(4-amino-1-cyclopentyl-pyrazolo[3,4-d]pyrimidin-3-yl)phenyl]methyl]-2-fluoro-6-methoxy-benzamide] | – | – | 1000 to 10000 | 1000 to 10000 | – |

Now from value to compound:

| IC50 [1, 5] [nM] | IC50 [2] [nM] | IC50 [3] [nM] | IC50 [4] [nM] | IC50 [1, 6] [nM] | SMILES |
| --- | --- | --- | --- | --- | --- |
| ≤ 10 | ≤ 10 | 10 to 100 | 10 to 100 | – | COc1ccccc1C(=O)NCc1ccc(-n2nc(C3CCCC3)c3ncnc(N)c32)cc1 [Example 38, N-[[4-(7-amino-3-cyclopentyl-pyrazolo[4,3-d]pyrimidin-1-yl)phenyl]methyl]-2-methoxy-benzamide] |
| ≤ 10 | ≤ 10 | 100 to 1000 | 100 to 1000 | 1.2 | CCOC(=O)C1CCCC(n2nc(-c3ccc(CNC(=O)c4ccccc4OC)cc3)c3c(N)ncnc32)C1 (centres unmarked) [Example 41, ethyl 3-[4-amino-3-[4-[[(2-methoxybenzoyl)amino]methyl]phenyl]pyrazolo[3,4-d]pyrimidin-1-yl]cyclohexanecarboxylate] |
| 1000 to 10000 | 1000 to 10000 | 1000 to 10000 | – | – | COc1ccccc1C(=O)NC1(c2ccc(-c3nn(C4CCCC4)c4ncnc(N)c34)cc2)CC1 [Example 67, N-[1-[4-(4-amino-1-cyclopentyl-pyrazolo[3,4-d]pyrimidin-3-yl)phenyl]cyclopropyl]-2-methoxy-benzamide] |
| ≤ 10 | ≤ 10 | 1000 to 10000 | – | – | COc1ccccc1C(=O)NCc1ccc(-c2nn(C3CCCC3)c3ncnc(N)c23)c(C)c1 [Example 79, N-[[4-(4-amino-1-cyclopentyl-pyrazolo[3,4-d]pyrimidin-3-yl)-3-methyl-phenyl]methyl]-2-methoxy-benzamide] |
| ≤ 10 | ≤ 10 | 1000 to 10000 | – | – | COc1ccccc1C(=O)NCc1ccc(-c2nn(C(C)C)c3ncnc(N)c23)cc1 [Example 78, N-[[4-(4-amino-1-isopropyl-pyrazolo[3,4-d]pyrimidin-3-yl)phenyl]methyl]-2-methoxy-benzamide] |
| – | – | 1000 to 10000 | 1000 to 10000 | – | COc1ccccc1C(=O)NC(C)c1ccc(-c2nn(C3CCCC3)c3ncnc(N)c23)cc1 (centres unmarked) [Example 64, N-[1-[4-(4-amino-1-cyclopentyl-pyrazolo[3,4-d]pyrimidin-3-yl)phenyl]ethyl]-2-methoxy-benzamide] |
| 1000 to 10000 | – | – | 1000 to 10000 | – | CC(C)(C)n1nc(-c2ccc(CNC(=O)c3cc4ccccc4o3)cc2)c2c(N)ncnc21 [Example 81, N-[[4-(4-amino-1-tert-butyl-pyrazolo[3,4-d]pyrimidin-3-yl)phenyl]methyl]benzofuran-2-carboxamide] |
| – | – | 1000 to 10000 | 1000 to 10000 | – | CC(C)c1ccccc1C(=O)NCc1ccc(-c2nn(C3CCCC3)c3ncnc(N)c23)cc1 [Example 80, N-[[4-(4-amino-1-cyclopentyl-pyrazolo[3,4-d]pyrimidin-3-yl)phenyl]methyl]-2-isopropyl-benzamide] |
| 100 to 1000 | 10 to 100 | 1000 to 10000 | – | – | COc1ccccc1C(=O)NCc1c(F)cc(-c2nn(C3CCCC3)c3ncnc(N)c23)cc1F [Example 73, N-[[4-(4-amino-1-cyclopentyl-pyrazolo[3,4-d]pyrimidin-3-yl)-2,6-difluoro-phenyl]methyl]-2-methoxy-benzamide] |
| 100 to 1000 | 100 to 1000 | – | – | – | COc1cc2ccccc2cc1C(=O)NCc1ccc(-c2nn(C3CCCC3)c3ncnc(N)c23)cc1 [Example 71, N-[[4-(4-amino-1-cyclopentyl-pyrazolo[3,4-d]pyrimidin-3-yl)phenyl]methyl]-3-methoxy-naphthalene-2-carboxamide] |
| ≤ 10 | ≤ 10 | – | 10 to 100 | – | COc1cc(-c2nn(C3CCCC3)c3ncnc(N)c23)ccc1CNC(=O)c1ccccc1OC [Example 75, N-[[4-(4-Amino-1-cyclopentyl-pyrazolo[3,4-d]pyrimidin-3-yl)-2-methoxy-phenyl]methyl]-2-methoxy-benzamide] |
| > 10000 | > 10000 | – | – | – | Nc1ncnc2c1c(-c1ccc(CNC(=O)C3CNc4ccccc4O3)cc1)nn2C1CCCC1 (centres unmarked) [Example 86, N-[[4-(4-Amino-1-cyclopentyl-pyrazolo[3,4-d]pyrimidin-3-yl)phenyl]methyl]-3,4-dihydro-2H-1,4-benzoxazine-2-carboxamide] |

From patent publication US10399989B2, “Pyrazolopyrimidine derivatives as BTK inhibitors for the treatment of cancer” (Loxo Oncology, Inc., priority 2016, dated 2019)
